Measurements as given in the NIST ThermoML archive (doi:10.1021/je501178z).
“And” between values parts separate entries of the source, which are not always exact repeats. Identical values can stand only once.

Assay: mn = molality of the nth substance listed, in mol/kg
Conditions: 101.3 kPa, Liquid; for viscosity: Capillary tube (Ostwald / Ubbelohde) method; for mass density: Vibrating tube method

OC[C@@H](O)[C@@H](O)[C@H](O)[C@H](O)CO [D-mannitol] + O
Conditions | mass density, m1 = 0.2 [kg/m3] | mass density, m1 = 0.4 | mass density, m1 = 0.6 [kg/m3] | mass density, m1 = 0.8 [kg/m3] | mass density, m1 = 1 [kg/m3] | viscosity, m1 = 0.2 [mPa·s] | viscosity, m1 = 0.4 | viscosity, m1 = 0.6 [mPa·s] | viscosity, m1 = 0.8 [mPa·s] | viscosity, m1 = 1
293.15 K | 1010.52 | 1022.31 kg/m3 | 1033.43 | 1043.98 | 1054.13 | 1.104 | 1.221 mPa·s | 1.336 | 1.494 | 1.643 mPa·s
303.15 K | 1007.82 | 1019.39 kg/m3 | 1030.35 | 1040.88 | 1050.85 | 0.874 | 0.959 mPa·s | 1.044 | 1.151 | 1.262 mPa·s
313.15 K | 1004.26 | 1015.71 kg/m3 and 1015.74 kg/m3 | 1026.6 | 1036.92 | 1046.79 | 0.711 | 0.775 mPa·s and 0.776 mPa·s | 0.841 | 0.917 | 1.001 mPa·s and 1 mPa·s
323.15 K | 999.96 | 1011.28 kg/m3 | 1022.09 | 1032.28 | 1042.15 | 0.592 | 0.642 mPa·s | 0.693 | 0.752 | 0.814 mPa·s

NCC(=O)O [2-aminoacetic acid] + O
Conditions | mass density, 293.15 K [kg/m3] | mass density, 303.15 K [kg/m3] | mass density, 313.15 K [kg/m3] | mass density, 323.15 K [kg/m3] | viscosity, 293.15 K [mPa·s] | viscosity, 303.15 K [mPa·s] | viscosity, 313.15 K [mPa·s] | viscosity, 323.15 K [mPa·s]
m1 = 0.1002 | 1001.41 | 998.8 | – | 991.11 | 1.015 | 0.809 | 0.663 | 0.555
m1 = 0.2 | 1004.57 | 1001.91 | – | 994.14 | 1.029 | 0.82 | 0.672 | 0.563
m1 = 0.3002 | 1007.7 | 1004.98 | 1001.42 | 997.14 | 1.042 | 0.831 | 0.681 | 0.571
m1 = 0.4001 | 1010.77 | 1008 | 1004.4 | 1000.09 | 1.057 | 0.842 | 0.691 | 0.579
m1 = 0.5001 | 1013.8 | 1010.98 | 1007.35 | 1003.01 | 1.072 | 0.855 | 0.701 | 0.587
m1 = 0.6 | 1016.78 | 1013.91 | 1010.25 | 1005.88 | 1.086 | 0.867 | 0.711 | 0.596
m1 = 0.6998 | 1019.71 | 1016.8 | 1013.11 | 1008.72 | 1.101 | 0.878 | 0.721 | 0.605
